Experimental data from patent publication US9556165B2 (priority 2012, dated 2017).
Converted amounts (≈) assume the structure as drawn. Read-outs that look alike come from different tables or passages of the source.

Experiments:
Format in all cases: cell-based
E. coli ATCC25922 = test: MIC determination, broth microdilution (CLSI); details: for MIC: Escherichia coli, ATCC25922, strain 1
K. pneumoniae 60 = test: MIC determination, broth microdilution (CLSI); details: for MIC: Klebsiella pneumoniae, 60, strain 2
E. cloacae 34654 = test: MIC determination, broth microdilution (CLSI); details: for MIC: Enterobacter cloacae, 34654, strain 3
C. freundii K21/3034 = test: MIC determination, broth microdilution (CLSI); details: for MIC: Citrobacter freundii, K21/3034, strain 4
M. morganii 126/3048 = test: MIC determination, broth microdilution (CLSI); details: for MIC: Morganella morganii, 126/3048, strain 5
P. aeruginosa PAO1 = test: MIC determination, broth microdilution (CLSI); details: for MIC: Pseudomonas aeruginosa, PAO1, strain 6
[1] = system: P. aeruginosa 2297 (AmpC wt); test: MIC determination, broth microdilution (CLSI); details: for MIC: Pseudomonas aeruginosa, strain 7
[2] = system: P. aeruginosa 2297-con (AmpC derepressed); test: MIC determination, broth microdilution (CLSI); details: strain 8
A. baumannii ATCC15308 = test: MIC determination, broth microdilution (CLSI); details: for MIC: Acinetobacter baumannii, ATCC15308, strain 9
S. maltophilia ICB7569 = test: MIC determination, broth microdilution (CLSI); details: for MIC: Stenotrophomonas maltophilia, ICB7569, strain 10
S. aureus 133 = test: MIC determination, broth microdilution (CLSI)
E. coli J62 = test: MIC determination, broth microdilution (CLSI); details: broth microdilution; for MIC: Escherichia coli, J62, strain 17, read-out: MIC strain 17 (E. coli J62)
E. coli J62-TEM-3 = test: MIC determination, broth microdilution (CLSI); details: broth microdilution; for MIC: Escherichia coli, J62TEM3, read-out: MIC strain 18 (E. coli J62-TEM-3), strain 18
Bacteria = test: MIC determination in combination with β-lactamase inhibitors (constant 4 μg/mL)
H. influenzae ATCC 49247 = test: MIC determination, broth microdilution (CLSI); details: Haemophilus influenzae, ATCC49247, strain 12; broth microdilution; read-out: MIC strain 12 (H. influenzae ATCC 49247)
S. pneumoniae 113 = test: MIC determination, broth microdilution (CLSI); details: Streptococcus pneumoniae, 113, strain 13; broth microdilution; read-out: MIC strain 13 (S. pneumoniae 113)
B. fragilis 6688 = test: MIC determination, broth microdilution (CLSI); details: Bacteroides fragilis, 6688, strain 15; broth microdilution; read-out: MIC strain 15 (B. fragilis 6688)
[3] = Staphylococcus aureus, 133, strain 14, broth microdilution, read-out: MIC strain 14 (S. aureus 133)
[4] = Staphylococcus aureus, 133, strain 11, read-out: strain 11 MIC

SMILES | strain 1 MIC (E. coli ATCC25922) | strain 2 MIC (K. pneumoniae 60) | strain 3 MIC (E. cloacae 34654) | strain 4 MIC (C. freundii K21/3034) | MIC (P. aeruginosa PAO1) | MIC [1] | strain 8 MIC [2] | MIC (A. baumannii ATCC15308) | strain 10 MIC (S. maltophilia ICB7569) | MIC (S. aureus 133; [3]) | MIC strain 17 (E. coli J62) (E. coli J62) | MIC strain 18 (E. coli J62-TEM-3) (E. coli J62-TEM-3) | MIC strain 19 (E. coli J62-TEM-3 + 4 μg/mL clavulanic acid) (Bacteria) | MIC strain 20 (E. coli J62-TEM-3 + 4 μg/mL sulbactam) (Bacteria) | MIC strain 21 (E. coli J62-TEM-3 + 4 μg/mL tazobactam) (Bacteria) | MIC (E. coli ATCC25922) | MIC (K. pneumoniae 60) | MIC (E. cloacae 34654) | MIC (C. freundii K21/3034) | MIC (M. morganii 126/3048) | also measured
CC1(C)[C@H](NC(=O)/C(=N\OC(CO)COc2ccc(C(=N)N)cc2)c2csc(N)n2)C(=O)N1OS(=O)(=O)O (mixture of isomers) [Example 45A, (2Z)-2-(2-Amino-1,3-thiazol-4-yl)-2-({[(2R and 2S)-1-(4-carbamimidoylphenoxy)-3-hydroxypropan-2-yl]oxy}imino)-N-[(3S)-2,2-dimethyl-4-oxo-1-(sulfooxy)azetidin-3-yl]ethanamide] | 0.5 µg/mL | 0.5 µg/mL | 1 µg/mL | 0.25 µg/mL | 8 µg/mL | 16 µg/mL | 8 µg/mL | 2 µg/mL | 8 µg/mL | 8 µg/mL | 0.5 µg/mL | 1 µg/mL | 0.5 µg/mL | 0.5 µg/mL | 0.5 µg/mL | – | – | – | – | – | strain 5 MIC (M. morganii 126/3048; strain 5): 0.5 µg/mL
CC1(C)[C@H](NC(=O)/C(=N\O[C@@H](COc2ccc(C(=N)NC3CC3N)cc2)C(=O)O)c2csc(N)n2)C(=O)N1OS(=O)(=O)O (single isomer, unassigned) [Example 100B] | 2 µg/mL | 2 µg/mL | 4 µg/mL | 2 µg/mL | – | – | 16 µg/mL | – | 32 µg/mL | – | 4 µg/mL (≈ 6.24 µM) | 16 µg/mL (≈ 25 µM) | 2 µg/mL | 2 µg/mL | 2 µg/mL | – | – | – | – | – | strain 6 MIC (P. aeruginosa PAO1; strain 6): 16 µg/mL; strain 7 MIC [1]: 32 µg/mL; strain 9 MIC (A. baumannii ATCC15308; strain 9): 32 µg/mL
C[C@H]1[C@H](NC(=O)/C(=N\OCCOc2ccc(C(=N)NNC=O)cc2)c2csc(N)n2)C(=O)N1S(=O)(=O)O [Example 63, (2S,3S)-3-({(2Z)-2-(2-Amino-1,3-thiazol-4-yl)-2-[(2-{4-[(2-formylhydrazinyl)(imino)methyl]phenoxy}ethoxy)imino]acetyl}amino)-2-methyl-4-oxoazetidine-1-sulfonic acid] | – | – | – | – | 8 µg/mL (≈ 14.4 µM) | 8 µg/mL (≈ 14.4 µM) | – | 16 µg/mL (≈ 28.9 µM) | – | 16 µg/mL (≈ 28.9 µM) | – | – | 0.25 µg/mL | 0.5 µg/mL | 0.5 µg/mL | 0.5 µg/mL (≈ 0.902 µM) | 0.25 µg/mL (≈ 0.451 µM) | 0.5 µg/mL (≈ 0.902 µM) | 0.25 µg/mL (≈ 0.451 µM) | 0.5 µg/mL (≈ 0.902 µM) | MIC (S. maltophilia ICB7569): 16 µg/mL (≈ 28.9 µM); MIC (S. aureus 133; [4]): 0.5 µg/mL (≈ 0.902 µM); MIC (H. influenzae ATCC 49247): 0.125 µg/mL (≈ 0.225 µM); MIC (S. pneumoniae 113): 0.5 µg/mL (≈ 0.902 µM); MIC (B. fragilis 6688): 16 µg/mL (≈ 28.9 µM); MIC (E. coli J62): 0.5 µg/mL (≈ 0.902 µM); MIC (E. coli J62-TEM-3): 8 µg/mL (≈ 14.4 µM)
C[C@H]1[C@H](NC(=O)/C(=N\OCCOc2ccc(C(=N)NN)cc2)c2csc(N)n2)C(=O)N1S(=O)(=O)O [Example 64, (2S,3S)-3-({(2Z)-2-(2-Amino-1,3-thiazol-4-yl)-2-[(2-{4-[hydrazinyl(imino)methyl]phenoxy}ethoxy)imino]acetyl}amino)-2-methyl-4-oxoazetidine-1-sulfonic acid] | – | – | – | – | 8 µg/mL (≈ 15.2 µM) | 16 µg/mL (≈ 30.4 µM) | – | 8 µg/mL (≈ 15.2 µM) | – | 8 µg/mL (≈ 15.2 µM) | – | – | 1 µg/mL | 1 µg/mL | 2 µg/mL | 0.5 µg/mL (≈ 0.95 µM) | 0.25 µg/mL (≈ 0.475 µM) | 0.5 µg/mL (≈ 0.95 µM) | 0.5 µg/mL (≈ 0.95 µM) | 0.5 µg/mL (≈ 0.95 µM) | MIC (S. maltophilia ICB7569): 32 µg/mL (≈ 60.8 µM); MIC (S. aureus 133; [4]): 16 µg/mL (≈ 30.4 µM); MIC (H. influenzae ATCC 49247): 8 µg/mL (≈ 15.2 µM); MIC (S. pneumoniae 113): 32 µg/mL (≈ 60.8 µM); MIC (E. coli J62): 1 µg/mL (≈ 1.9 µM); MIC (E. coli J62-TEM-3): 32 µg/mL (≈ 60.8 µM)
